Source: US20250230193A1, “CYCLIC COMPOUND HAVING SELECTIVE KRAS INHIBITORY EFFECT ON HRAS AND NRAS” (CHUGAI SEIYAKU KABUSHIKI KAISHA, priority 2022, published 2025)
Like-named read-outs stand apart in the source and are kept apart here.

Experiments:
[1] = test system: human lung cancer strain NCI-H441
[2] = target: GDP-bound NRAS wild-type protein (Homo sapiens, UniProt P01111); test: Binding to NRAS by surface plasmon resonance (SPR), Single Cycle Kinetics; conditions: SPR; KD ratio class
[3] = target: GDP-bound HRAS wild-type protein (Homo sapiens, UniProt P01112); test: Binding to HRAS by surface plasmon resonance (SPR), Single Cycle Kinetics; conditions: SPR; KD ratio class
Sequence of GDP-bound HRAS wild-type protein (P01112 whole entry): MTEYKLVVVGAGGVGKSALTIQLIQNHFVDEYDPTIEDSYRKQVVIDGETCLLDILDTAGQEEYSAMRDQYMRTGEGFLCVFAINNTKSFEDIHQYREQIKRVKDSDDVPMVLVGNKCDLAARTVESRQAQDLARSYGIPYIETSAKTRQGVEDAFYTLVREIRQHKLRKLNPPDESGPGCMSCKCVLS

[4] = test system: human lung cancer strain NCI-H441; test: cells; conditions: NCI-H441, 96 h, read-out: NCI-H441 IC50 (nM)

Sequence of GDP-bound NRAS wild-type protein (P01111 whole entry): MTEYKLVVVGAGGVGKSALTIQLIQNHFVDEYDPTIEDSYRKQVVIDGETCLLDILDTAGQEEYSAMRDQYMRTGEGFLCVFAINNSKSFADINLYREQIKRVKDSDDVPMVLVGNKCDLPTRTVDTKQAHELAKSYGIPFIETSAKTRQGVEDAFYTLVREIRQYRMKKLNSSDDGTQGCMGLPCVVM

Row | SMILES | IC50 ([1]; read-out: NCI-H441 IC50, NCI-H441 cells, 4 days, CellTiter-Glo) | IC50 [1] | NRAS/KRAS (ratio of KD value for GDP-bound NRAS wild-type protein to KD value for KRAS) [2] | HRAS/KRAS (ratio of KD value for GDP-bound HRAS wild-type protein to KD value for KRAS) [3] | IC50 [4]
1 | CCO[C@@H]1C[C@H]2C(=O)NC3(CCC3)C(=O)N(C)[C@@H](C3CCCC3)C(=O)N(C)[C@@H](C(C)C)CC(=O)N(C)[C@@H](CC3CC3)C(=O)N[C@@H]([C@@H](C)CC)C(=O)N(C)CC(=O)N(C)[C@H]3C/C=C\CCN(C3=O)[C@@H](Cc3ccc(C(F)(F)F)cc3)C(=O)N(C)CC(=O)N[C@@H](CCc3cc(F)c(C(F)(F)F)c(F)c3)C(=O)N2C1 [PP1596] | 18.1 nM | – | – | – | –
2 | CC[C@H](C)[C@@H]1NC(=O)[C@H](CC(C)C)N(C)C(=O)C[C@@H](C(=O)N(C)C)N(C)C(=O)[C@H](C2CCCC2)N(C)C(=O)C2(CCCC2)NC(=O)[C@@H]2CCCN2C(=O)[C@H](CCc2ccc(C(F)(F)F)c(Cl)c2)NC(=O)CN(C)C(=O)[C@H](Cc2ccc(C)cc2)N2C/C=C\COC[C@@H](C2=O)N(C)C(=O)CN(C)C1=O [PP0627] | – | 98.3 nM | – | – | –
3 | CCO[C@@H]1C[C@H]2C(=O)NC3(CCCC3)C(=O)N(C)[C@@H](C3CCCC3)C(=O)N(C)[C@H](C(=O)N(C)C)CC(=O)N(C)[C@@H](CC)C(=O)N[C@@H]([C@@H](C)CC)C(=O)N(C)CC(=O)N(C)[C@H]3CC[C@@H](C)CN(C3=O)[C@@H](Cc3ccc(C(F)(F)F)cc3)C(=O)N(C)CC(=O)N[C@@H](CCc3ccc(C(F)(F)F)c(Cl)c3)C(=O)N2C1 [PP1376] | – | – | B (a compound having 3 or more and less than 10 is denoted as B) | B (a compound having 3 or more and less than 10 is denoted as B) | 3.5 nM
4 | CCO[C@@H]1C[C@H]2C(=O)NC3(CC(C)(C)C3)C(=O)N(C)[C@@H](C3CCCC3)C(=O)N3CCC[C@@H]3CC(=O)N(C)[C@@H](CC)C(=O)N[C@@H]([C@@H](C)CC)C(=O)N(C)CC(=O)N(C)[C@H]3C/C=C\CCN(C3=O)[C@@H](Cc3ccc(C(F)(F)F)cc3)C(=O)N(C)CC(=O)N[C@@H](CCc3cc(F)c(C(F)(F)F)c(F)c3)C(=O)N2C1 [PP1606] | – | – | B (a compound having 3 or more and less than 10 is denoted as B) | B (a compound having 3 or more and less than 10 is denoted as B) | 12.6 nM
5 | CCC[C@H]1C(=O)N[C@@H]([C@@H](C)CC)C(=O)N(C)CC(=O)N(C)[C@H]2C/C=C\CCN(C2=O)[C@@H](Cc2ccc(C(F)(F)F)cc2)C(=O)N(C)CC(=O)N[C@@H](CCc2cc(F)c(C(F)(F)F)c(F)c2)C(=O)N2C[C@H](OCC)C[C@H]2C(=O)NC2(CCC2)C(=O)N(C)[C@@H](C2CCCC2)C(=O)N(C)[C@H](C(=O)N2CCOCC2)CC(=O)N1C [PP1288] | – | – | AA (a compound having 20 or more is denoted as AA) | A (a compound having 10 or more and less than 20 is denoted as A) | 22.2 nM
6 | CCO[C@@H]1C[C@H]2C(=O)NC3(CCC3)C(=O)N(C)[C@@H](C3CCCC3)C(=O)N(C)[C@H](C(=O)N3CCOCC3)CC(=O)N(C)[C@@H](CC3CC3)C(=O)N[C@@H]([C@@H](C)CC)C(=O)N(C)CC(=O)N(C)[C@H]3C/C=C\CCN(C3=O)[C@@H](Cc3ccc(F)cc3)C(=O)N(C)CC(=O)N[C@@H](CCc3cc(F)c(C(F)(F)F)c(F)c3)C(=O)N2C1 [PP1496] | – | – | A (a compound having 10 or more and less than 20 is denoted as A) | B (a compound having 3 or more and less than 10 is denoted as B) | 36.7 nM
7 | CCO[C@@H]1C[C@H]2C(=O)NC3(CCC3)C(=O)N(C)[C@@H](C(CC)CC)C(=O)N(C)[C@H](C(=O)N3CCOCC3)CC(=O)N(C)[C@@H](CC3CC3)C(=O)N[C@@H]([C@@H](C)CC)C(=O)N(C)CC(=O)N(C)[C@H]3C/C=C\CCN(C3=O)[C@@H](Cc3ccc(F)cc3C)C(=O)N(C)CC(=O)N[C@@H](CCc3cc(F)c(C(F)(F)F)c(F)c3)C(=O)N2C1 [PP1526] | – | – | A (a compound having 10 or more and less than 20 is denoted as A) | A (a compound having 10 or more and less than 20 is denoted as A) | 118 nM
8 | CCC[C@H]1C(=O)N[C@@H]([C@@H](C)CC)C(=O)N(C)CC(=O)N(C)[C@H]2C/C=C\CCN(C2=O)[C@@H](Cc2ccc(C(F)(F)F)cc2)C(=O)N(C)CC(=O)N[C@@H](CCc2ccc(C(F)(F)F)c(OC)c2)C(=O)N2C[C@H](OCC)C[C@H]2C(=O)NC2(CCC2)C(=O)N(C)[C@@H](C(CC)CC)C(=O)N(C)[C@H](C(=O)N(C)C)CC(=O)N1C [PP1208] | – | – | AA (a compound having 20 or more is denoted as AA) | A (a compound having 10 or more and less than 20 is denoted as A) | 24.4 nM
9 | CC[C@H](C)[C@@H]1NC(=O)[C@H](CC2CC2)N(C)C(=O)C[C@@H](C(=O)N2CCOCC2)N(C)C(=O)[C@H](C2CCCC2)N(C)C(=O)C2(CCC2)NC(=O)[C@@H]2CCCN2C(=O)[C@H](CCc2ccc(C(F)(F)F)c(Cl)c2)NC(=O)CN(C)C(=O)[C@H](Cc2ccc(C(F)(F)F)cc2)N2C[C@H](C)CC[C@@H](C2=O)N(C)C(=O)[C@@H]2CCN2C1=O [PP1341] | – | – | A (a compound having 10 or more and less than 20 is denoted as A) | B (a compound having 3 or more and less than 10 is denoted as B) | 46.3 nM
10 | CCO[C@@H]1C[C@H]2C(=O)NC3(CCC3)C(=O)N(C)[C@@H](C3CCCC3)C(=O)N(C)[C@H](C(=O)N3CCOCC3)CC(=O)N(C)[C@@H](CC)C(=O)N[C@@H]([C@@H](C)CC)C(=O)N(C)CC(=O)N(C)[C@H]3CC[C@@H](C)CN(C3=O)[C@@H](Cc3ccc(C(F)(F)F)cc3)C(=O)N(C)CC(=O)N[C@@H](CCc3ccc(C(F)(F)F)c(Cl)c3)C(=O)N2C1 [PP1378] | – | – | B (a compound having 3 or more and less than 10 is denoted as B) | C (A compound having a KD ratio of 0.1 or more and less than 3 is denoted as C) | 6.6 nM
11 | CCO[C@@H]1C[C@H]2C(=O)NC3(CCC3)C(=O)N(C)[C@@H](C(CC)CC)C(=O)N(C)[C@H](C(=O)N(C)C)CC(=O)N(C)[C@@H](CC3CCCC3)C(=O)N[C@@H]([C@@H](C)CC)C(=O)N(C)CC(=O)N(C)[C@H]3C/C=C\CCN(C3=O)[C@@H](CC3CCCCC3)C(=O)N(C)CC(=O)N[C@@H](CCc3cc(F)c(C(F)(F)F)c(F)c3)C(=O)N2C1 [PP1430] | – | – | A (a compound having 10 or more and less than 20 is denoted as A) | A (a compound having 10 or more and less than 20 is denoted as A) | 70.4 nM
12 | CCO[C@@H]1C[C@H]2C(=O)NC3(CCC3)C(=O)N(C)[C@@H](C3CCCC3)C(=O)N(C)[C@H](C(=O)N3CCOCC3)CC(=O)N(C)[C@@H](CC(C)C)C(=O)N[C@@H]([C@@H](C)CC)C(=O)N3CC[C@H]3C(=O)N(C)[C@H]3C[C@@H](C)[C@@H](C)CN(C3=O)[C@@H](Cc3ccc(C(F)(F)F)cc3)C(=O)N(C)CC(=O)N[C@@H](CCc3cc(F)c(C(F)(F)F)c(F)c3)C(=O)N2C1 [PP1355] | – | – | A (a compound having 10 or more and less than 20 is denoted as A) | B (a compound having 3 or more and less than 10 is denoted as B) | 10.2 nM
13 | CCO[C@@H]1C[C@H]2C(=O)NC3(CCCC3)C(=O)N(C)[C@@H](C(CC)CC)C(=O)N(C)[C@H](C(=O)N3CCCC3)CC(=O)N(C)[C@@H](COC)C(=O)N[C@@H]([C@@H](C)CC)C(=O)N(C)CC(=O)N(C)[C@H]3C/C=C\CCN(C3=O)[C@@H](CC3CCC(F)(F)CC3)C(=O)N(C)CC(=O)N[C@@H](CCc3cc(F)c(C(F)(F)F)c(F)c3)C(=O)N2C1 [PP1441] | – | – | A (a compound having 10 or more and less than 20 is denoted as A) | A (a compound having 10 or more and less than 20 is denoted as A) | 87.6 nM
14 | CCO[C@@H]1C[C@H]2C(=O)NC3(CCC3)C(=O)N(C)[C@@H](C(CC)CC)C(=O)N(C)[C@H](C(=O)N(C)C)CC(=O)N(C)[C@@H](CC(C)C)C(=O)N[C@@H]([C@@H](C)CC)C(=O)N(C)CC(=O)N(C)[C@H]3C/C=C\CCN(C3=O)[C@@H](Cc3ccc(F)cc3C)C(=O)N(C)CC(=O)N[C@@H](CCc3cc(F)c(C(F)(F)F)c(F)c3)C(=O)N2C1 [PP1518] | – | – | A (a compound having 10 or more and less than 20 is denoted as A) | B (a compound having 3 or more and less than 10 is denoted as B) | 49.4 nM
15 | CC[C@H](C)[C@@H]1NC(=O)[C@H](CC2CC2)N(C)C(=O)C[C@@H](C(=O)N2CCOCC2)N(C)C(=O)[C@H](C2CCCC2)N(C)C(=O)C2(CCC2)NC(=O)[C@@H]2CCCN2C(=O)[C@H](CCc2ccc(C(F)(F)F)c(Cl)c2)NC(=O)CN(C)C(=O)[C@H](Cc2ccc(C(F)(F)F)cc2)N2C[C@H](C)CC[C@@H](C2=O)N(C)C(=O)CN(C)C1=O [PP1344] | – | – | B (a compound having 3 or more and less than 10 is denoted as B) | B (a compound having 3 or more and less than 10 is denoted as B) | 16.7 nM
